Test results taken from patent US9427426B2 (priority 2008, dated 2016).
Like-named read-outs stand apart in the source and are kept apart here.

How the values were obtained:
rat = settings: cited from earlier work
[1] = cited from earlier work; for solubility in water, in words: water (NAC: at 20° C.)
[2] = tested on: rats intoxicated with mercury (mercury chloride); assay: Example 1: erdosteine per os vs NAC per os in rats intoxicated with mercury; assay type: in vivo, Wistar rats; settings: erdosteine 875 mg/kg or NAC 500 mg/kg per os once a day for 7 days
Method: (§1) 3. […] NAC has been mixed with bidistilled water, the resulting solution being administered in volume of 10 ml/kg.
(§2) 4. […] Erdosteine has been mixed with bidistilled water and sodium hydrogen carbonate equimolar, the resulting solution being administered in volume of 10 ml/kg.
(§3) Mortality has been recorded. […] Few animals have been collected urine eliminated spontaneously for Pb—Hg analysis. Animals have been sacrificed under general anesthesia with ether. 6 animals of each group (3 males and 3 females) have been randomly selected for macroscopic and microscopic anatomic-pathological examination.

[3] = tested on: rats intoxicated with mercury (mercury chloride); assay: Example 2: erdosteine i.v. vs NAC i.v. in rats intoxicated with mercury; assay type: in vivo, Wistar rats
Method: (§4) The animals have been randomly divided in 11 lots.
(§5) 3. […] NAC has been dissolved in bidistilled water.
(§6) 4. […] Erdosteine has been solubilized in bidistilled water and sodium hydrogen carbonate equimolar, the resulting solution being administered in volume of 10 ml/kg. Preliminarily we tested the different molar ratios erdosteine/sodium hydrogen carbonate in a range between 0.5:1 and 1.5:1 and the volume to be solubilized. […] Animals Monitoring:
as §3

[4] = tested on: rats intoxicated with paracetamol; assay: Example 4: erdosteine i.v. vs NAC i.v. in rats intoxicated with paracetamol; assay type: in vivo, Wistar rats
Source text: Experiment has been carried on in parallel with experiment of example 3 and results of animals not intoxicated not treated (lot1) have been used as reference.
as §5
Animals have been monitored as described in example 3.
Mortality has been recorded.

[5] = tested on: rats intoxicated with lead (lead acetate); assay: Example 2: erdosteine i.v. vs NAC i.v. in rats intoxicated with lead; assay type: in vivo, Wistar rats
Method: as §4, §5, §6, §3

[6] = tested on: rats intoxicated with lead (lead acetate); assay: Example 1: erdosteine per os vs NAC per os in rats intoxicated with lead; assay type: in vivo, Wistar rats; settings: erdosteine 875 mg/kg or NAC 500 mg/kg per os once a day for 7 days
Method: as §1, §2, §3

[7] = Hg intoxicated (mercury chloride 42 mg/kg per os), 30 animals/lot
[8] = survivors after 7 days, Hg intoxicated
[9] = Hg intoxicated (mercury chloride 42 mg/kg per os), ERDO1 = erdosteine 350 mg/kg i.v. or NAC 114 mg/kg i.v. once a day for 7 days, 35 animals/lot
[10] = Hg intoxicated, ERDO1 = erdosteine 350 mg/kg i.v. or NAC 114 mg/kg i.v. once a day for 7 days
[11] = survivors after 7 days, Hg intoxicated, ERDO1 = erdosteine 350 mg/kg i.v. or NAC 114 mg/kg i.v. once a day
[12] = paracetamol […] per os, erdosteine 350 mg/kg i.v. or NAC 114 mg/kg i.v. once a day for 7 days, 30 animals/lot
[13] = paracetamol intoxicated, erdosteine 350 mg/kg i.v. or NAC 114 mg/kg i.v., 7 days
[14] = survivors at 7 days, paracetamol intoxicated, erdosteine 350 mg/kg i.v. or NAC 114 mg/kg i.v.
[15] = Pb intoxicated (lead acetate 4665 mg/kg per os), ERDO1 = erdosteine 350 mg/kg i.v. or NAC 114 mg/kg i.v. once a day for 7 days, 35 animals/lot
[16] = Pb intoxicated, ERDO1 = erdosteine 350 mg/kg i.v. or NAC 114 mg/kg i.v. once a day for 7 days
[17] = survivors after 7 days, Pb intoxicated, ERDO1 = erdosteine 350 mg/kg i.v. or NAC 114 mg/kg i.v. once a day
[18] = Pb intoxicated (lead acetate 4665 mg/kg per os), 30 animals/lot
[19] = survivors after 7 days, Pb intoxicated

In the case of `OCC(S)CS` (centres unmarked) [Dimercaprol, 2,3,Dimercapto1-propanol], the LD50 i.v. (rat; rat, i.v.) is given as 105 mg/kg and the “solubility in water, in words” value [1] is given as “hardly soluble”.

For `CC(=O)N[C@@H](CS)C(=O)O` [NAC, N-Acetylcysteine], the Mortality in percent [2, 7] was 33.3%, the Mortality total [2, 7] was 10^2^ and the “Anatomical pathology: lesions (macroscopic and microscopic examination)” value ([2]; Hg intoxicated) was “less important lesions”. For the same molecule, the “Hg in urine mean values” ([2]; Hg intoxicated, GS MS Varian 4100) was 11.5 mg/L, the Creatinine mean values [2, 8] was 0.56 ^3 mK/dl and the Haematocrit mean values [2, 8] was 41.50^3. For the same molecule, the Haemoglobin mean values [2, 8] was 13.58^3 g/dl, the Leucocytes mean values [2, 8] was 6.72^3 and the Urea mean values [2, 8] was 85.45 ^3 mg/dl. For the same molecule, the “Uric acid mean value” [2, 8] was 2.38 ^1 mg/dl, the erythrocytes mean values [2, 8] was 6.92^3 *10^6/mm^3 and the Mortalitaty total [3, 9] was 30 ^3. For the same molecule, the Mortality in percent [3, 9] was 85.7%, the “Anatomical pathology: lesions” value [3, 10] was “least severe damages” and the “Hg in urine mean values” [3, 10] was 13.9 mg/L. The Creatinine mean values [3, 11] was 1.06 ^4 mK/dl, the Haematocrit mean values [3, 11] was 38.97 ^3 and the Haemoglobin mean values [3, 11] was 14.57 ^3 g/dl. The Leucocytes mean values [3, 11] was 10.5 ^3, the Urea mean values [3, 11] was 79.52 ^4 mg/dl and the “Uric acid mean value” [3, 11] was 2.02 ^4 mg/dl. The erythrocytes mean values [3, 11] was 6.76 ^3 *10^6/mm^3, the Mortality percentual [4, 12] was 20% and the Total mortality [4, 12] was 6/30. The “Renal aggression (urine summary), in words” value ([4]; paracetamol intoxicated, erdosteine 350 mg/kg i.v. or NAC 114 mg/kg i.v.) was “antagonized”, the “Urine summary: Bil.” value [4, 13] was 3 mg/dL and the “Urine summary: Chet” value [4, 13] was “neg”. For the same molecule, the “Urine summary: Density” value [4, 13] was 1015, the “Urine summary: Erythrocyte” value [4, 13] was 25 µL⁻¹ and the “Urine summary: Glucose” value [4, 13] was “neg”. The “Urine summary: Leuc” value [4, 13] was 25 µL⁻¹, the “Urine summary: Prot.” value [4, 13] was 75 mg/dL and the “Urine summary: UBG” value [4, 13] was 1 mg/dL. The “Urine summary: pH” value [4, 13] was 6.8, the ALT [4, 14] was 206.6^1 and the AST [4, 14] was 42.6^2. For the same molecule, the HCT [4, 14] was 41.7^1, the PLT [4, 14] was 550.8^1 and the RBC [4, 14] was 7.20^1. The Urea [4, 14] was 74.76^1, the Uric acid [4, 14] was 2.574^1 and the Mortalitaty total [5, 15] was 28 ^3. For the same molecule, the Mortality in percent [5, 15] was 80%, the “Anatomical pathology: lesions” value [5, 16] was “did not improve lesions” and the “Pb in urine, Pb mean values” [5, 16] was 12.9 mg/L. For the same molecule, the Creatinine mean values [5, 17] was 0.78 ^4 mK/dl, the Haematocrit mean values [5, 17] was 35.48 ^3 and the Haemoglobin mean values [5, 17] was 15.86 ^3 g/dl. For the same molecule, the Leucocytes mean values [5, 17] was 16.36 ^3, the Urea mean values [5, 17] was 80.98 ^4 mg/dl and the “Uric acid mean value” [5, 17] was 2.13 ^4 mg/dl. The erythrocytes mean values [5, 17] was 6.93 ^3 *10^6/mm^3, the Mortality in percent [6, 18] was 30% and the Mortality total [6, 18] was 9. The “Anatomical pathology: lesions (macroscopic and microscopic examination)” value ([6]; Pb intoxicated) was “did not improve lesions”, the “Pb in urine, Pb mean values” ([6]; Pb intoxicated, GS MS Varian 4100) was 13.2 mg/L and the Creatinine mean values [6, 19] was 0.66 ^3 mK/dl. For the same molecule, the Haematocrit mean values [6, 19] was 41.42^3, the Haemoglobin mean values [6, 19] was 13.58^3 g/dl and the Leucocytes mean values [6, 19] was 6.82^3. The Urea mean values [6, 19] was 104.15 ^3 mg/dl, the “Uric acid mean value” [6, 19] was 2.36 ^1 mg/dl and the erythrocytes mean values [6, 19] was 6.55^3 *10^6/mm^3. For the same molecule, the LD50 i.v. (rat; rat, in vivo, iv) was 1140 mg/kg, the LD50 per os (rat; rat, in vivo) was 5050 mg/kg and the “solubility in water, in words” value [1] was “slightly soluble”.

In the case of `[Cl][Hg][Cl]` [mercury chloride], the LD50 per os (rat; per os, rat where given) is given as 42 mg/kg and the solubility in water ([1]; water at 20° C.) is given as 7.4 g/100 ml.

For Lead acetate trihydrate, the LD50 per os (rat; per os, rat where given) is given as 4665 mg/kg.
